Reference: US20090298820A1, “3-SUBSTITUTED-1H-PYRROLO[2,3-B]PYRIDINE AND 3-SUBSTITUTED-1H-PYRROLO[3,2-B]PYRIDINE COMPOUNDS, THEIR USE AS MTOR KINASE AND PI3 KINASE INHIBITORS, AND THEIR SYNTHESES” (Wyeth, priority 2008, published 2009)
Where two headings read alike, the source gives them in different places.

Assays:
Assay type in all cases: biochemical
PI3Kα = PI3Kα (Homo sapiens, UniProt P42336); assay: PI3K-alpha fluorescence polarization assay; settings: read-out: PI3Kα Median IC50
mTOR = mTOR (Homo sapiens, UniProt P42345); assay: mTOR enzyme assay (DELFIA format, His6-S6K substrate)
PI3Kγ = PI3Kγ (Homo sapiens, UniProt P48736); assay: PI3K-gamma fluorescence polarization assay; settings: read-out: PI3Kγ Median IC50
[1] = read-out: mTOR Kinase Median IC50

PI3Kγ, sequence (P48736 whole entry, species assumed): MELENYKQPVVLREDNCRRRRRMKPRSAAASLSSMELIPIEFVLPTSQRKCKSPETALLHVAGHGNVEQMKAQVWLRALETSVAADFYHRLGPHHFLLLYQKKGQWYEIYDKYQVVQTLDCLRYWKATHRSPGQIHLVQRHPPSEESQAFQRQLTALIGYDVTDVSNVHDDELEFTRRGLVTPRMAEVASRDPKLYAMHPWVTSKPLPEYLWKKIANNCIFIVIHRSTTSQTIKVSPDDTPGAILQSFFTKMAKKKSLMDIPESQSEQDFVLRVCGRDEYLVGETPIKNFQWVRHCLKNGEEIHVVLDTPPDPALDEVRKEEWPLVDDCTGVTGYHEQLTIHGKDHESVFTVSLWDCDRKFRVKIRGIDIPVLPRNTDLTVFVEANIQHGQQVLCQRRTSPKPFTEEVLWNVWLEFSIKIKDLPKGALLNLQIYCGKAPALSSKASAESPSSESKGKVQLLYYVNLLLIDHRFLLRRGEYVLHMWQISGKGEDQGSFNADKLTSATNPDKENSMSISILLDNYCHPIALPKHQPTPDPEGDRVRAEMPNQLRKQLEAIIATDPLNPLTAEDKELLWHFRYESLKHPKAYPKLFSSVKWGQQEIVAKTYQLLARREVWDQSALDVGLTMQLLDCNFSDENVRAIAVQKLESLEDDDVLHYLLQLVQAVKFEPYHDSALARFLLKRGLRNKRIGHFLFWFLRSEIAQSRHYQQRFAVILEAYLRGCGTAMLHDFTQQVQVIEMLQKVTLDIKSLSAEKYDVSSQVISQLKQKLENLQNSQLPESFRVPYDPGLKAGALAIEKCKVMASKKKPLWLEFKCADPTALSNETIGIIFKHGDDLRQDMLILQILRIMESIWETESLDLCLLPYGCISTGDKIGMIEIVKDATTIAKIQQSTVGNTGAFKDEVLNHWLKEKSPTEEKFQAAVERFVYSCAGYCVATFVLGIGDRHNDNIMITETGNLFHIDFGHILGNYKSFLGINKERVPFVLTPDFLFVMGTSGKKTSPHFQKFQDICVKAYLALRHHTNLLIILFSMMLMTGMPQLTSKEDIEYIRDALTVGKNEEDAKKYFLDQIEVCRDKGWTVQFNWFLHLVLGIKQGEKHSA
PI3Kα, sequence (P42336 whole entry, species assumed): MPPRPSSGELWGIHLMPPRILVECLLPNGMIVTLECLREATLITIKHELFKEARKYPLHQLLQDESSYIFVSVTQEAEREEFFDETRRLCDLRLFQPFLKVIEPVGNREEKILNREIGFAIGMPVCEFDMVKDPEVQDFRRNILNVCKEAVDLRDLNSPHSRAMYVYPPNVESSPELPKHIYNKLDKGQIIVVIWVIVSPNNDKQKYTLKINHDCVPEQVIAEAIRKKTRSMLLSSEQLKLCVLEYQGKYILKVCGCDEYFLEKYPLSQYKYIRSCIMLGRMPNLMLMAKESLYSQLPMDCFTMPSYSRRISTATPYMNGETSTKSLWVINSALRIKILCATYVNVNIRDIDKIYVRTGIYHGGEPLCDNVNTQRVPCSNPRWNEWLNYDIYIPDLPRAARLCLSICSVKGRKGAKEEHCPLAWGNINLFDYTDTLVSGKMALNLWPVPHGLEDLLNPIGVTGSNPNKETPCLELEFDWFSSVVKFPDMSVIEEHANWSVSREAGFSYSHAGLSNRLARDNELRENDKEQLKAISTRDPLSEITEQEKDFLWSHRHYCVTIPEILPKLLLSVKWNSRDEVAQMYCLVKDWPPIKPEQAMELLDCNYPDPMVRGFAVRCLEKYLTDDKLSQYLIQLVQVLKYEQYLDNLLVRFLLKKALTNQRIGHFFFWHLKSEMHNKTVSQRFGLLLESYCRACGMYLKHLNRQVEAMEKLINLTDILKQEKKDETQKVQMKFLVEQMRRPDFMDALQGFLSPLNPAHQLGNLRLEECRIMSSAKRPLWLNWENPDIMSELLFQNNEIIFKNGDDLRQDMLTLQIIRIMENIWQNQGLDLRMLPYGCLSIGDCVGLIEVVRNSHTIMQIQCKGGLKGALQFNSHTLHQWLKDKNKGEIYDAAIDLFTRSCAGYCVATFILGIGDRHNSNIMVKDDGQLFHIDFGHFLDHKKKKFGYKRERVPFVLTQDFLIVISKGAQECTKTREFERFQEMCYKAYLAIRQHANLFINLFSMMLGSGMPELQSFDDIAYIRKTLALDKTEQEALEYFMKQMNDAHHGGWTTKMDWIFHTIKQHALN
PI3Kα, sequence (P27986 whole entry partner, species assumed): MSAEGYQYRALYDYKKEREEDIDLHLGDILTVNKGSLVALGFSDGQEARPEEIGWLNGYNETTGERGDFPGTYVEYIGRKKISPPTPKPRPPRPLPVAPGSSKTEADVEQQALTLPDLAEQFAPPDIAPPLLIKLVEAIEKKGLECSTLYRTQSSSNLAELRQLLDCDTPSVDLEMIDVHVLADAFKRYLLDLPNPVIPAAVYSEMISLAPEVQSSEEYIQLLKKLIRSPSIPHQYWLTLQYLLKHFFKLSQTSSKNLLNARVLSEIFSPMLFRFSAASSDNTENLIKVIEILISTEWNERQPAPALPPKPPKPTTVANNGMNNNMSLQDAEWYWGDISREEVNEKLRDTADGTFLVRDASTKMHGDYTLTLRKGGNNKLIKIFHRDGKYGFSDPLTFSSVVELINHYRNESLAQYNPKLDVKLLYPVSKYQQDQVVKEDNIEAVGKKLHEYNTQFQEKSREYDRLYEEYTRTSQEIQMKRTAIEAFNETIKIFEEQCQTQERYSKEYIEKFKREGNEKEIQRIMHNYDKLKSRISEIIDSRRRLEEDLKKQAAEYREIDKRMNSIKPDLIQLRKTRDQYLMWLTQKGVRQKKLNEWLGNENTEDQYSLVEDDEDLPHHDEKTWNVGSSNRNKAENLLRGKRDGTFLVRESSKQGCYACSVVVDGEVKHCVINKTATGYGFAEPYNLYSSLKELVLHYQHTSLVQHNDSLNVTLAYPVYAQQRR

Row | Compound | IC50 (PI3Kα) | IC50 (mTOR; [1]) | IC50 (PI3Kγ) | IC50 (mTOR)
1 | Cn1cc(/C=C2\Oc3cccc(O)c3C2=O)c2c(-c3ccc(Oc4ccccc4)cc3)ccnc21 [Compound 84, (2Z)-4-hydroxy-2-{[1-methyl-4-(4-phenoxyphenyl)-1H-pyrrolo[2,3-b]pyridin-3-yl]methylene}-1-benzofuran-3(2H)-one] | 4880 nM | 165 nM | > 10000 nM | –
2 | Cn1cc(/C=C2\Oc3cccc(O)c3C2=O)c2c(N3CCOCC3)ccnc21 [Compound 48, (2Z)-4-hydroxy-2-[(1-methyl-4-morpholin-4-yl-1H-pyrrolo[2,3-b]pyridin-3-yl)methylene]-1-benzofuran-3(2H)-one] | 53 nM | 2.2 nM | 184 nM | –
3 | CN(C)C(=O)C1CCN(c2ccnc3c2c(/C=C2\Oc4ccc(NC(=O)NC5CCN(C(=O)C(F)(F)F)CC5)cc4C2=O)cn3C)CC1 [Compound 300, N,N-dimethyl-1-(1-methyl-3-{(Z)-[3-oxo-5-({[1-(trifluoroacetyl)piperidin-4-yl]carbamoyl}amino)-1-benzofuran-2(3H)-ylidene]methyl}-1H-pyrrolo[2,3-b]pyridin-4-yl)piperidine-4-carboxamide] | 736 nM | 105 nM | 3540 nM | –
4 | Cc1cccc(CN(C)C(=O)C2CCN(c3ccnc4c3c(/C=C3\Oc5ccc(NC(=O)Nc6cccnc6)cc5C3=O)cn4C)CC2)n1 [Compound 225, N-methyl-1-{1-methyl-3-[(Z)-{3-oxo-5-[(pyridin-3-ylcarbamoyl)amino]-1-benzofuran-2(3H)-ylidene}methyl]-1H-pyrrolo[2,3-b]pyridin-4-yl}-N-[(6-methylpyridin-2-yl)methyl]piperidine-4-carboxamide] | 2320 nM | – | 1920 nM | 49 nM

Now from value to molecule, other results behind:

Row | IC50 (PI3Kα) | IC50 (mTOR; [1]) | IC50 (PI3Kγ) | Compound | IC50 (mTOR)
5 | 38 nM | 0.6 nM | 54 nM | Cn1cc(/C=C2\Oc3cccc(O)c3C2=O)c2c(-c3ccc(C(=O)NCCCO)cc3)ccnc21 [Compound 147, 4-{3-[(Z)-(4-hydroxy-3-oxo-1-benzofuran-2(3H)-ylidene)methyl]-1-methyl-1H-pyrrolo[2,3-b]pyridin-4-yl}-N-(3-hydroxypropyl)benzamide] | –
6 | 2240 nM | 12.5 nM | 2990 nM | COCCCN(C)C(=O)C1CCN(c2ccnc3c2c(C=C2Oc4ccc(NC(=O)Nc5cccnc5)cc4C2=O)cn3C)CC1 [Compound 199, N-(3-methoxypropyl)-N-methyl-1-[1-methyl-3-({3-oxo-5-[(pyridin-3-ylcarbamoyl)amino]-1-benzofuran-2(3H)-ylidene}methyl)-1H-pyrrolo[2,3-b]pyridin-4-yl]piperidine-4-carboxamide] | –
7 | 3300 nM | 30 nM | 484 nM | COCCN(C)C(=O)c1ccc(-c2ccnc3c2c(/C=C2\Oc4ccc(NC(=O)Nc5cccnc5)cc4C2=O)cn3C)cc1 [Compound 247, N-(2-methoxyethyl)-N-methyl-4-{1-methyl-3-[(Z)-{3-oxo-5-[(pyridin-3-ylcarbamoyl)amino]-1-benzofuran-2(3H)-ylidene}methyl]-1H-pyrrolo[2,3-b]pyridin-4-yl}benzamide] | –
8 | 249 nM | 15 nM | 578 nM | CNC(=O)Nc1ccc2c(c1)C(=O)/C(=C/c1cn(C)c3nccc(-c4ccc(C(=O)N5CCOCC5)cc4)c13)O2 [Compound 179, 1-methyl-3-[(2Z)-2-({1-methyl-4-[4-(morpholin-4-ylcarbonyl)phenyl]-1H-pyrrolo[2,3-b]pyridin-3-yl}methylidene)-3-oxo-2,3-dihydro-1-benzofuran-5-yl]urea] | –
9 | 25 nM | 0.2 nM | 83 nM | Cn1cc(/C=C2\Oc3cc(O)cc(O)c3C2=O)c2c(-c3ccc(N4CCOCC4)cc3)ccnc21 [Compound 49, (2Z)-4,6-dihydroxy-2-{[1-methyl-4-(4-morpholin-4-ylphenyl)-1H-pyrrolo[2,3-b]pyridin-3-yl]methylene}-1-benzofuran-3(2H)-one] | –
